biological target: MAGL (Homo sapiens (Human), UniProt Q99685); assay: 2-AG assay: MAGL inhibitory activity by hydrolysis of 2-arachidonoylglycerol to arachidonic acid (mass spectrometry); assay type: biochemical; details: measured in 2-AG assay (footnote [b]); 8 μM 2-arachidonoylglycerol
Protocol: Alternatively, compounds were profiled for MAGL inhibitory activity by determining the enzymatic activity by following the hydrolysis of the natural substrate 2-arachidonoylglycerol resulting in arachidonic acid, which can be followed by mass spectrometry. This assay is hereinafter abbreviated “2-AG assay”.
A C18 SPE cartridge (G9205A) was used in an acetonitrile/water liquid setup. […] The activity of the compounds was calculated based on the ratio of intensities [arachidonic acid/d8-arachidonic acid].

Sequence of MAGL (Q99685 whole entry, species assumed): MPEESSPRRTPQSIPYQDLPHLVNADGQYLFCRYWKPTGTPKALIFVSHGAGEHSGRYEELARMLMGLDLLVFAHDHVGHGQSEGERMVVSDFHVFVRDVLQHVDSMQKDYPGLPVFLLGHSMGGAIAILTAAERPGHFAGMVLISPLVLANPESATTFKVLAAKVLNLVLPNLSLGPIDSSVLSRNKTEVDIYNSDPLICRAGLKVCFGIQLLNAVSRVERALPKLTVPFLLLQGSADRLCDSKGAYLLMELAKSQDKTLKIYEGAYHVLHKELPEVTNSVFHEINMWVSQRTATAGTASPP

Structure (SMILES)	IC50 [nM]
O=C1CO[C@H]2CCN(C(=O)N3CCC(Oc4ccc(Cl)c(C(F)(F)F)c4)CC3)C[C@H]2N1 [Example 119]	14
O=C1CO[C@H]2CCN(C(=O)N3CCC(Oc4ccc(C(F)(F)F)cc4F)CC3)C[C@H]2N1 [Example 254]	64
Cc1cc(OC[C@@H]2CCN(C(=O)N3CC[C@@H]4OCC(=O)N[C@@H]4C3)C[C@@H]2C)cnc1C(F)(F)F [Example 231]	5
O=C1CO[C@H]2CCN(C(=O)N3CCC(Oc4cc(C(F)(F)F)ccc4Cl)C3)C[C@H]2N1 (stereo partly drawn) [Example 284]	72
CC1CN(c2cccc(OC3CN(C(=O)N4CC[C@@H]5OCC(=O)N[C@@H]5C4)C3)c2Cl)C1 [Example 272, (+)-(4aR,8aS)-6-[3-[2-Chloro-3-(3-methylazetidin-1-yl)phenoxy]azetidine-1-carbonyl]-4,4a,5,7,8,8a-hexahydropyrido[4,3-b][l,4]oxazin-3-one]	94
O=C1CO[C@H]2CCN(C(=O)N3CC(OCc4cc(Cl)ccc4Cl)C3)C[C@H]2N1 [Example 225]	7

biological target: MAGL (recombinant wild-type) (Homo sapiens (Human), UniProt Q99685); assay: 4-NPA assay: MAGL inhibitory activity by hydrolysis of 4-nitrophenylacetate (absorbance at 405 nm); assay type: biochemical; details: measured in 4-NPA assay (footnote [a]); 1 nM MAGL, 300 μM 4-nitrophenylacetate
Protocol: This assay is hereinafter abbreviated “4-NPA assay”.
The plate was shaked for 1 min at 2000 rpm (Variomag Teleshake) and then incubated for 15 min at RT. […] The final concentrations in the assay were 1 nM MAGL and 300 μM 4-Nitrophenylacetate. […] A second measurement was then done after incubation for 80 min at RT. From the two measurements, the slope was calculated by subtracting the first from the second measurement.

Sequence of MAGL (recombinant wild-type) (Q99685 whole entry, species assumed): as above

Structure (SMILES)	IC50 [nM]
O=C1CO[C@@H]2CCN(C(=O)N3CCC(COc4ccc(F)cc4Cl)CC3)C[C@@H]2N1 [Example 23]	856
O=C1CO[C@H]2CCN(C(=O)N3CCC(COc4ccc(C(F)(F)F)nc4)CC3)C[C@H]2N1 [Example 43, (4aR,8aS)-6-(4-(((6-(trifluoromethyl)pyridin-3-yl)oxy)methyl)piperidine-1-carbonyl)hexahydro-2H-pyrido[4,3-b][1,4]oxazin-3(4H)-one]	529
O=C1CO[C@H]2CCN(C(=O)N3CCC(CN4CCC(F)(F)CC4)CC3)C[C@H]2N1 [Example 37, (4aR,8aS)-6-(4-((4,4-Difluoropiperidin-1-yl)methyl)piperidine-1-carbonyl)hexahydro-2H-pyrido[4,3-b][1,4]oxazin-3(4H)-one]	1300
O=C1CO[C@H]2CCN(C(=O)N3CCC(COc4ccc(F)cc4Cl)CC3)C[C@H]2N1 [Example 7]	11
O=C1CO[C@H]2CCN(C(=O)N3CCC(Oc4ccc(C(F)(F)F)cc4)CC3)C[C@H]2N1 [Example 12, (+)- or (−)-(4aR,8aS)-6-(4-(4-(Trifluoromethyl)phenoxy)piperidine-1-carbonyl)hexahydro-2H-pyrido[4,3-b][1,4]oxazin-3(4H)-one]	77
COc1cc(C(F)(F)F)ccc1COC1CN(C(=O)N2CC[C@@H]3OCC(=O)N[C@@H]3C2)C1 [Example 115]	3
O=C1CO[C@H]2CCN(C(=O)N3CCC(COc4ccc(F)cc4F)CC3)C[C@H]2N1 [Example 32]	20
O=C1CO[C@H]2CCN(C(=O)N3CCC(COc4ccccc4)CC3)C[C@H]2N1 [Example 15]	190
O=C1CO[C@@H]2CCN(C(=O)N3CCC(Cc4ccc(C(F)(F)F)cc4)CC3)C[C@H]2N1 [Example 19]	1500
O=C1CO[C@H]2CCN(C(=O)N3CCC(Cc4ccc(OC(F)(F)F)cc4)CC3)C[C@H]2N1 [Example 31]	49
N#Cc1cc(F)ccc1OCC1CCN(C(=O)N2CC[C@@H]3OCC(=O)N[C@@H]3C2)CC1 [Example 55]	79
O=C1CO[C@@H]2CCN(C(=O)N3CCC(Cc4ccc(C(F)(F)F)cc4)CC3)C[C@@H]2N1 [Example 20]	1800
O=C1CO[C@@H]2CCN(C(=O)N3CCC(COc4ccc(C(F)(F)F)nc4)CC3)C[C@@H]2N1 [Example 42, (4aS,8aR)-6-(4-(((6-(Trifluoromethyl)pyridin-3-yl)oxy)methyl)piperidine-1-carbonyl)hexahydro-2H-pyrido[4,3-b][1,4]oxazin-3(4H)-one]	1200
O=C1CO[C@H]2CCN(C(=O)N3CC(OCc4ccc(C(F)(F)F)cc4Cl)C3)C[C@H]2N1 [Example 75]	2
O=C1CO[C@H]2CCN(C(=O)N3CC(Cc4ccc(C(F)(F)F)cc4)C3)C[C@H]2N1 [Example 36]	119
C[C@H]1O[C@H]2CCN(C(=O)N3CCC(Cc4ccc(C(F)(F)F)cc4)CC3)C[C@H]2NC1=O [Example 67]	120
O=C1CO[C@H]2CCN(C(=O)N3CCC(Cc4nc(-c5ccccc5)no4)CC3)C[C@H]2N1 [Example 18]	892
N#Cc1ccc(CC2CCN(C(=O)N3CC[C@@H]4OCC(=O)N[C@@H]4C3)CC2)cc1 [Example 34, (+)- or (−)-4-[[1-[(4aR,8aS)-3-Oxo-4,4a,5,7,8,8a-hexahydropyrido[4,3-b][1,4]oxazine-6-carbonyl]-4-piperidyl]methyl]benzonitrile]	438
O=C1CO[C@H]2CCN(C(=O)N3CCC(Cc4ccc(C(F)(F)F)cc4C4CC4)CC3)C[C@H]2N1 [Example 95]	8
O=C1CO[C@H]2CCN(C(=O)N3CC(COc4ccc(C(F)(F)F)cc4Cl)C3)C[C@H]2N1 [Example 62]	9
O=C1CO[C@H]2CCN(C(=O)N3CCC(Cc4ccc(C(F)(F)F)cc4Cl)CC3)C[C@H]2N1 [Example 99]	12
O=C1CO[C@H]2CCN(C(=O)N3CCC(Cc4ccc(C(F)(F)F)cc4)C3)C[C@H]2N1 (stereo partly drawn) [Example 100]	82
O=C1CO[C@H]2CCN(C(=O)N3CC(F)(COc4ccc(F)cc4Cl)C3)C[C@H]2N1 [Example 109]	223

Structure (SMILES)	IC50 [nM]
CC1C(OCc2ccc(C(F)(F)F)cc2)CN1C(=O)N1CC[C@@H]2OCC(=O)N[C@@H]2C1 (stereo partly drawn) [Example 105, (4aR,8aS)-6-[2-Methyl-3-[[4-(trifluoromethyl)phenyl]methoxy]azetidine-1-carbonyl]-4,4a,5,7,8,8a-hexahydropyrido[4,3-b][1,4]oxazin-3-one]	285
O=C1CO[C@H]2CCN(C(=O)N3CC(OCc4ccc(C(F)(F)F)c(F)c4)C3)C[C@H]2N1 [Example 114]	5
CC(C)(C)c1coc(CC2CCN(C(=O)N3CC[C@@H]4OCC(=O)N[C@@H]4C3)CC2)n1 [Example 4]	92
Cc1cc(C(F)(F)F)ccc1CC1CCN(C(=O)N2CC[C@@H]3OCC(=O)N[C@@H]3C2)CC1 [Example 98]	10
O=C1CO[C@H]2CCN(C(=O)N3CC(OCc4ccc(C(F)(F)F)cc4F)(C(F)(F)F)C3)C[C@H]2N1 [Example 110]	2180
CC1(OCc2ccc(C(F)(F)F)cc2F)CN(C(=O)N2CC[C@@H]3OCC(=O)N[C@@H]3C2)C1 [Example 111]	20
O=C1CO[C@H]2CCN(C(=O)N3CCC(Oc4ccc(Cl)c(-c5ccc(Cl)cc5)c4)CC3)C[C@H]2N1 [Example 73]	8
O=C1CO[C@H]2CCN(C(=O)N3CCC(Cc4ccc(C(F)(F)F)cc4-c4cn[nH]c4)CC3)C[C@H]2N1 [Example 81]	6
O=C1CO[C@H]2CCN(C(=O)N3CC(COCc4c(F)cccc4C(F)(F)F)C3)C[C@H]2N1 [Example 102]	22
O=C1CO[C@H]2CCN(C(=O)N3CC(OCc4ccc(C(F)(F)F)cc4F)C3)C[C@H]2N1 [Example 29]	5
O=C1CO[C@H]2CCN(C(=O)N3CCC(F)(COc4ccc(F)cc4Cl)CC3)C[C@H]2N1 [Example 64, (4aR,8aS)-6-(4-((2-Chloro-4-fluorophenoxy)methyl)-4-fluoropiperidine-1-carbonyl)hexahydro-2H-pyrido[4,3-b][1,4]oxazin-3(4H)-one]	40
O=C1CO[C@@H]2CCN(C(=O)N3CCC(COc4ccc(F)cc4F)CC3)C[C@@H]2N1 [Example 49]	363
COc1ccc(OCC2CCN(C(=O)N3CC[C@@H]4OCC(=O)N[C@@H]4C3)CC2)c(F)c1 [Example 39, (4aR,8aS)-6-[4-[(2-Fluoro-4-methoxyphenoxy)methyl]piperidine-1-carbonyl]-4,4a,5,7,8,8a-hexahydropyrido[4,3-b][1,4]oxazin-3-one]	116
O=C1CO[C@H]2CCN(C(=O)N3CC(COc4ccc(F)cc4Cl)C3)C[C@H]2N1 [Example 57]	49
O=C1CO[C@H]2CCN(C(=O)N3CCC(OCc4ccccc4Cl)C3)C[C@H]2N1 (stereo partly drawn) [Example 93]	124
O=C1CO[C@H]2CCN(C(=O)N3CCC(Cc4ccc(C(F)(F)F)cn4)CC3)C[C@H]2N1 [Example 25]	452
CC1(COc2ccc(F)cc2Cl)CCN(C(=O)N2CC[C@H]3OCC(=O)N[C@H]3C2)CC1 [Example 48]	288
O=C1CO[C@H]2CCN(C(=O)N3CC(COc4ccc(F)cc4Cl)C3)C[C@H]2N1 [Example 28]	18
O=C1CO[C@H]2CCN(C(=O)N3CCC(COc4ccc(F)cc4C(F)(F)F)CC3)C[C@H]2N1 [Example 51]	10
O=C1CO[C@H]2CCN(C(=O)N3CCN(Cc4ccc(C(F)(F)F)cc4)CC3)C[C@H]2N1 (racemic) [Example 21, rac-(4aR,8aS)-6-(4-(4-(Trifluoromethyl)benzyl)piperazine-1-carbonyl)hexahydro-2H-pyrido[4,3-b][1,4]oxazin-3(4H)-one]	909
O=C1CO[C@H]2CCN(C(=O)N3CCC(COc4ccc(C(F)(F)F)cc4F)CC3)C[C@H]2N1 [Example 52]	58
O=C1CO[C@H]2CCN(C(=O)N3CCN(Cc4ccc(C(F)(F)F)cc4N4CCCC4)CC3)C[C@H]2N1 [Example 56]	42

From patent US11802133B2, “Heterocyclic compounds as monoacylglycerol lipase inhibitors” (Hoffmann-La Roche Inc., priority 2018, dated 2023)
